Data from patent publication US20250042889A1, “3CLPRO PROTEASE INHIBITOR” (SHANGHAI QILU PHARMACEUTICAL RESEARCH AND DEVELOPMENT …, priority 2021, published 2025).
Like-named read-outs stand apart in the source and are kept apart here.

Target: SARS-COV-2 3CLpro/Mpro protease (Severe acute respiratory syndrome coronavirus 2 (2019-nCoV) (SARS-CoV-2), UniProt P0DTD1)
Assay: Inhibitory effect on SARS-COV-2 3CLpro/Mpro protease by fluorescence resonance energy transfer
Format: biochemical
Details: activity intervals A-D
[1] = read-out: IC50 (nM), Inhibition on SARS-CoV-2 3CLpro/Mpro protease
[2] = IC50 (nM), Inhibition on SARS-CoV-2 3CLpro/Mpro protease

Row | SMILES | IC50 [1] | IC50 [2]
1 | CNc1cncc(C(=O)N2CC(Nc3c(C(=O)N4CCN(CCOC)CC4)cc(Br)cc3[N+](=O)[O-])C(F)(F)C2)c1 (centres unmarked) [Example 298] | 10 to 50 nM | 
2 | Cc1cc(C(=O)N2C[C@H](Nc3c(C(=O)NC4CCCCC4)cc(Br)cc3[N+](=O)[O-])C3(CC3)C2)cc(=O)[nH]1 [Example 299] | 10 to 50 nM | 
3 | Cc1cc(C(=O)N2CC(Nc3c(C(=O)N4CCN(C5CCCCC5)CC4)cc(Br)cc3[N+](=O)[O-])C(F)(F)C2)cc(=O)[nH]1 (centres unmarked) [Example 300] | 10 to 50 nM | 
4 | CNc1cncc(C(=O)NC[C@@H](COC)Nc2c(C(=O)N3CCCCC3)cc(Br)cc2[N+](=O)[O-])c1 [Example 301] | 50 to 100 nM | 
5 | NC(=O)c1cncc(C(=O)N2CCC[C@@H](Nc3c(C(=O)N4CCCCC4)cc(Br)cc3[N+](=O)[O-])C2)c1 [Example 302] | 100 to 200 nM | 
6 | CNc1cncc(C(=O)N2CCC[C@@H](Nc3c(C(=O)N4CC(O)CC(F)(F)C4)cc(Br)cc3[N+](=O)[O-])C2)c1 (some centres unmarked) [Example 303] | 10 to 50 nM | 
7 | CNc1cncc(C(=O)N2CCC[C@@H](Nc3c(C(=O)N4Cc5cnn(C)c5C4)cc(Br)cc3[N+](=O)[O-])C2)c1 [Example 304] | 50 to 100 nM | 
8 | CNc1cncc(C(=O)N2CCC[C@@H](Nc3c(C(=O)N4CCCOCC4)cc(Br)cc3[N+](=O)[O-])C2)c1 [Example 305] | 10 to 50 nM | 
9 | CNc1cncc(C(=O)N2C[C@H](Nc3c(C(=O)N4CCCCC4)cc(Br)cc3[N+](=O)[O-])[C@@H](OC)C2)c1 [Example 306] | 10 to 50 nM | 
10 | CNc1cncc(C(=O)N2CCC[C@@H](Nc3c(C(=O)N4CC(F)(F)CC(F)(F)C4)cc(Br)cc3[N+](=O)[O-])C2)c1 [Example 307] | 10 to 50 nM | 
11 | CNc1cncc(C(=O)N2C[C@H](Nc3c(C(=O)N4CCCCC4)cc(Br)cc3[N+](=O)[O-])[C@H](OC)C2)c1 [Example 308] | 10 to 50 nM | 
12 | CNc1cncc(C(=O)N2CCC[C@@H](Nc3c(C(=O)N4CCc5oncc5C4)cc(Br)cc3[N+](=O)[O-])C2)c1 [Example 309] | 10 to 50 nM | 
13 | CNc1cncc(C(=O)N2CCC[C@@H](Nc3c(C(=O)N4CCC=C(C)C4)cc(Br)cc3[N+](=O)[O-])C2)c1 [Example 310] | 10 to 50 nM | 
14 | CNc1cncc(C(=O)N2CCC[C@@H](Nc3c(C(=O)N4CC=C(C)CC4)cc(Br)cc3[N+](=O)[O-])C2)c1 [Example 311] | 10 to 50 nM | 
15 | CNc1cncc(C(=O)N2CCC[C@@H](Nc3c(C(=O)N4CCc5nn(C)cc5C4)cc(Br)cc3[N+](=O)[O-])C2)c1 [Example 313] | 10 to 50 nM | 
16 | CNc1cncc(C(=O)N2CCC[C@@H](Nc3c(C(=O)N4CCn5cncc5C4)cc(Br)cc3[N+](=O)[O-])C2)c1 [Example 314] | 10 to 50 nM | 
17 | CNc1cncc(C(=O)N2CCC[C@@H](Nc3c(C(=O)N4CCc5ncsc5C4)cc(Br)cc3[N+](=O)[O-])C2)c1 [Example 315] | 10 to 50 nM | 
18 | CNc1cncc(C(=O)N2CCC[C@@H](Nc3c(C(=O)N4CCc5oc(C)nc5C4)cc(Br)cc3[N+](=O)[O-])C2)c1 [Example 316] | 10 to 50 nM | 
19 | CNc1cncc(C(=O)N2CCC[C@@H](Nc3c(C(=O)N4CCC(C5CCOCC5)CC4)cc(Br)cc3[N+](=O)[O-])C2)c1 [Example 317] | 10 to 50 nM | 

Row | SMILES | IC50 [1] | IC50 [2]
20 | CNc1cncc(C(=O)N2C[C@H](Nc3c(C(=O)N4CCN(CCOC)CC4)cc(Br)cc3[N+](=O)[O-])C(C)(O)C2)c1 (some centres unmarked) [Example 318] | 10 to 50 nM | 
21 | CNc1cncc(C(=O)N2CCC[C@@H](Nc3c(C(=O)N4CCCCC4)cc(Br)cc3C(F)(F)F)C2)c1 [Example 319] | 50 to 100 nM | 
22 | CNc1cncc(C(=O)N2C[C@H](Nc3c(C(=O)N4CCO[C@H](C)C4)cc(Br)cc3[N+](=O)[O-])[C@@H](OC)C2)c1 [Example 322] | 10 to 50 nM | 
23 | CNc1cncc(C(=O)N2CCC[C@@H](Nc3c(C(=O)N4CCn5cccc5C4)cc(Br)cc3[N+](=O)[O-])C2)c1 [Example 323] | 10 to 50 nM | 
24 | C=C1CNCC(C(=O)N2CCC[C@@H](Nc3c(C(=O)N4CCCCC4)cc(Br)cc3[N+](=O)[O-])C2)C1 (some centres unmarked) [Example 324] | 100 to 200 nM | 
25 | C[C@@H]1CN(C(=O)c2cc(Br)cc([N+](=O)[O-])c2N[C@@H]2CCCN(C(=O)[C@H]3CNCC(F)(F)C3)C2)C[C@H](C)O1 [Example 325] | 10 to 50 nM | 
26 | CNc1ccc2c(C(=O)N3CCC[C@@H](Nc4c(C(=O)N5C[C@@H](C)O[C@@H](C)C5)cc(Br)cc4[N+](=O)[O-])C3)cncc2c1 [Example 326] | 10 to 50 nM | 
27 | O=C(c1cc(Br)cc([N+](=O)[O-])c1N[C@@H]1CCCN(C(=O)[C@H]2CNCC(F)(F)C2)C1)N1CCOC2(CC2)C1 [Example 328] | 10 to 50 nM | 
28 | C[C@@H]1CN(C(=O)c2cc(Br)cc([N+](=O)[O-])c2N[C@@H]2CCCN(C(=O)[C@H]3CNCC(F)(F)C3)C2)CCO1 [Example 329] | 10 to 50 nM | 
29 | O=C(c1cc(Br)cc([N+](=O)[O-])c1N[C@@H]1CCCN(C(=O)[C@H]2CNCC(F)(F)C2)C1)N1CCO[C@H](C(F)(F)F)C1 [Example 330] | 10 to 50 nM | 
30 | O=C(c1cc(Br)cc([N+](=O)[O-])c1N[C@@H]1CCCN(C(=O)[C@H]2CNCC(F)(F)C2)C1)N1CC2CCC(C1)O2 [Example 332] | 10 to 50 nM | 
31 | O=C(c1cc(Br)cc([N+](=O)[O-])c1N[C@@H]1CCCN(C(=O)[C@H]2CNCC(F)(F)C2)C1)N1CCC2(CCCO2)CC1 [Example 333] | 10 to 50 nM | 
32 | CNc1cncc(C(=O)N2CCC[C@@H](Nc3c(C(=O)N4CCCOC(C)C4)cc(Br)cc3[N+](=O)[O-])C2)c1 (some centres unmarked) [Example 334] | 10 to 50 nM | 
33 | CNc1cncc(C(=O)N2CCC[C@@H](Nc3c(C(=O)N4CC5C=CC(C4)N5)cc(Br)cc3[N+](=O)[O-])C2)c1 [Example 335] |  | 10 to 50 nM
34 | CNc1cncc(C(=O)N2CCC[C@@H](Nc3c(C(=O)N4CC=CCC4)cc(Br)cc3[N+](=O)[O-])C2)c1 [Example 336, (R)-(5-Bromo-2-((1-(5-(methylamino)nicotinoyl)piperidin-3-yl)amino)-3-nitrophenyl)(3,6-dihydropyridin-1 (2H)-yl) methanone] | 10 to 50 nM | 
35 | CNc1cncc(C(=O)N2CCC[C@@H](Nc3c(C(=O)N4CC=C(F)CC4)cc(Br)cc3[N+](=O)[O-])C2)c1 [Example 337, (R)-(5-Bromo-2-((1-(5-(methylamino)nicotinoyl)piperidin-3-yl)amino)-3-nitrophenyl)(4-fluoro-3,6-dihydropyridin-1 (2H)-yl)methanone] | 10 to 50 nM | 
36 | CNc1cncc(C(=O)N2CCC[C@@H](Nc3c(C(=O)N4CCC5(CC4)CNCC(F)(F)O5)cc(Br)cc3[N+](=O)[O-])C2)c1 [Example 338] | 10 to 50 nM | 
37 | CNc1cncc(C(=O)N2CCC[C@@H](Nc3c(C(=O)N4CCC5(CC4)COC(C)(C)C5)cc(Br)cc3[N+](=O)[O-])C2)c1 [Example 339] | 10 to 50 nM | 
38 | CNc1cncc(C(=O)N2CCC[C@@H](Nc3c(C(=O)N4CCOC(C)(C)C4)cc(Br)cc3[N+](=O)[O-])C2)c1 [Example 340] | 10 to 50 nM | 

Row | SMILES | IC50 [1] | IC50 [2]
39 | CNc1cncc(C(=O)N2CCC[C@@H](Nc3c(C(=O)N4CCO[C@H](CCl)C4)cc(Br)cc3[N+](=O)[O-])C2)c1 [Example 341] | 10 to 50 nM | 
40 | CNc1cncc(C(=O)N2CCC[C@@H](Nc3c(C(=O)N4CCO[C@H](C5CC5)C4)cc(Br)cc3[N+](=O)[O-])C2)c1 [Example 342] | 10 to 50 nM | 
41 | CNc1ccc2c(C(=O)N3CCC[C@@H](Nc4c(C(=O)N5C[C@@H](C)O[C@@H](C)C5)cc(Br)cc4[N+](=O)[O-])C3)cc(=O)[nH]c2c1 [Example 343] | 10 to 50 nM | 
42 | C=C[C@@H]1CN(C(=O)c2cc(Br)cc([N+](=O)[O-])c2N[C@@H]2CCCN(C(=O)c3cncc(NC)c3)C2)CCO1 [Example 344] | 10 to 50 nM | 
43 | CNc1cncc(C(=O)N2CCC[C@@H](Nc3c(C(=O)N4CC(C)O[C@H](C(F)(F)F)C4)cc(Br)cc3[N+](=O)[O-])C2)c1 (some centres unmarked) [Example 345] | 10 to 50 nM | 
44 | C#C[C@@H]1CN(C(=O)c2cc(Br)cc([N+](=O)[O-])c2N[C@@H]2CCCN(C(=O)c3cncc(NC)c3)C2)CCO1 [Example 346] | 10 to 50 nM | 
45 | [2H]C([2H])([2H])Nc1cncc(C(=O)N2CCC[C@@H](Nc3c(C(=O)N4C[C@@H](C)O[C@@H](C)C4)cc(Br)cc3[N+](=O)[O-])C2)c1 [Example 347] | 10 to 50 nM | 
46 | C[C@@H]1CN(C(=O)c2cc(Br)cc([N+](=O)[O-])c2N[C@@H]2CCCN(C(=O)[C@@H]3CCCOC3)C2)C[C@H](C)O1 [Example 348] | 10 to 50 nM | 
47 | CNc1cncc(C(=O)N2CCC[C@@H](Nc3c(C(=O)N4C[C@@H](C)O[C@@H](C(F)(F)F)C4)cc(Br)cc3[N+](=O)[O-])C2)c1 [Example 349] | 10 to 50 nM | 
48 | CNc1cncc(C(=O)N2CCC[C@@H](Nc3c(C(=O)N4C[C@H](C)O[C@@H](C(F)(F)F)C4)cc(Br)cc3[N+](=O)[O-])C2)c1 [Example 350] | 50 to 100 nM | 
49 | CNc1cncc(C(=O)N2CCC[C@@H](Nc3c(C(=O)N4CCOC5(CC5)C4)cc(Br)cc3[N+](=O)[O-])C2)c1 [Example 351] | 10 to 50 nM | 
50 | CNc1cncc(C(=O)N2CCC[C@@H](Nc3c(C(=O)N4CCn5ccnc5C4)cc(Br)cc3[N+](=O)[O-])C2)c1 [Example 352] | 10 to 50 nM | 
51 | [2H]C1([2H])CN(C(=O)c2cc(Br)cc([N+](=O)[O-])c2N[C@@H]2CCCN(C(=O)c3cncc(NC)c3)C2)CC([2H])([2H])O1 [Example 353] | 10 to 50 nM | 
52 | [2H]C1([2H])CC[C@@H](Nc2c(C(=O)N3C[C@@H](C)O[C@@H](C)C3)cc(Br)cc2[N+](=O)[O-])C([2H])([2H])N1C(=O)c1cncc(NC)c1 [Example 354] | 10 to 50 nM | 
53 | CNc1cncc(C(=O)N2CCC[C@@H](Nc3c(C(=O)N4CCOC[C@H]4C)cc(Br)cc3[N+](=O)[O-])C2)c1 [Example 355] | 10 to 50 nM | 
54 | CNc1cncc(C(=O)N2CCC[C@@H](Nc3c(C(=O)N4CCOC[C@@H]4C)cc(Br)cc3[N+](=O)[O-])C2)c1 [Example 356] | 10 to 50 nM | 
55 | CNc1cncc(C(=O)N2CCC[C@@H](Nc3c(C(=O)N4C5COCC4C5)cc(Br)cc3[N+](=O)[O-])C2)c1 [Example 357, ((3R)-3-((2-(3-oxa-6-azabicyclo[3.1.1]heptan-6-carbonyl)-4-bromo-6-nitrophenyl)amino)piperidin-1-yl)(5-(methylamino)pyridin-3-yl)methanone] |  | 10 to 50 nM
56 | CNc1cncc(C(=O)N2CCC[C@@H](Nc3c(C(=O)N4C5CCC4COC5)cc(Br)cc3[N+](=O)[O-])C2)c1 [Example 358] |  | 10 to 50 nM
